Experimental data from PMC8922279, “Identification of β-Lactams Active against Mycobacterium tuberculosis by a Consortium of Pharmaceutical Companies and Academic Institutions” (ACS Infectious Diseases, 2022).

Experiments:
[1] = Stability in fasted simulated intestinal fluid (FaSSIF); settings: pH 6.5, room temperature; for FaSSIF Stability, % remaining, 6h / FaSSIF Stability, % remaining, 24h: 10 μM
[2] = Caco-2 permeability / efflux transporter substrate; settings: human
Caco-2 cells = assay: Caco-2 permeability / efflux transporter substrate; settings: for Caco-2 Mean Papp A to B / Caco-2 Mean Papp B to A: 3 μM, pH 7.4, 120 min
[3] = In vitro plasma stability, cynomolgus monkey plasma
[4] = In vitro plasma stability, CD-1 mouse plasma; settings: 37 °C, time point 120 min
[5] = In vitro plasma stability, beagle dog plasma
[6] = In vitro plasma stability, human plasma; settings: 37 °C, time point 120 min
[7] = Stability in simulated gastric fluid (SGF); settings: for SGF Stability, % remaining, 1h / SGF Stability, % remaining, 24h: 10 μM, pH 1.2, room temperature
[8] = In vitro plasma stability, SD rat plasma; settings: 37 °C, time point 120 min
P. aeruginosa = assay: Microbial spectrum, P. aeruginosa; format: cell-based, Pseudomonas aeruginosa; settings: clavulanate 4 μg/mL; Table S4
E. coli = assay: Microbial spectrum, E. coli; format: cell-based, Escherichia coli; settings: clavulanate 4 μg/mL; Table S4
C. albicans = assay: Microbial spectrum, C. albicans; format: cell-based, Candida albicans; settings: no clavulanate; Table S4
Mtb H37Rv [9] = assay: MIC90 against replicating (R) Mtb H37Rv, with or without clavulanate; format: cell-based, Mycobacterium tuberculosis; settings: Table S4; for Mtb H37Rv R + CLAV (MIC90): clavulanate 4 μg/mL; for Mtb H37Rv R (MIC90): no clavulanate
S. aureus = assay: Microbial spectrum, S. aureus; format: cell-based, Staphylococcus aureus; settings: clavulanate 4 μg/mL; Table S4
Mtb H37Rv [10] = assay: MIC90 against nonreplicating (NR, 4-stress) Mtb H37Rv, with or without clavulanate; format: cell-based, Mycobacterium tuberculosis; settings: 4-stress nonreplicating, Table S4; for Mtb H37Rv NR + CLAV (MIC90): clavulanate 4 μg/mL; for Mtb H37Rv NR (MIC90): no clavulanate
plasma proteins [11] = assay: Plasma protein binding (equilibrium dialysis), cynomolgus monkey; settings: 2 μM
plasma proteins [12] = assay: Plasma protein binding (equilibrium dialysis), human; settings: 2 μM
plasma proteins [13] = assay: Plasma protein binding (equilibrium dialysis), beagle dog; settings: 2 μM
plasma proteins [14] = assay: Plasma protein binding (equilibrium dialysis), SD rat; settings: 2 μM
plasma proteins [15] = assay: Plasma protein binding (equilibrium dialysis), CD-1 mouse; settings: 2 μM
[16] = simulated gastric fluid (SGF), pH 1.2
[17] = 2 μM, 37 °C, time point 120 min

| SMILES | Caco-2 Rank Papp (Caco-2 cells; Caco-2) | P.aeruginosa R + CLAV (MIC90) (P. aeruginosa) [µM] | FaSSIF Stability, % remaining, 6h [1] [%] | FaSSIF Stability, % remaining, 24h [1] [%] | E.coli R + CLAV (MIC90) (E. coli) [µM] | Caco-2 Mean Papp A to B (Caco-2 cells) | Caco-2 Mean Papp B to A (Caco-2 cells) | Caco-2 Mean Recovery % A to B (Caco-2 cells; Caco-2) [%] | Caco-2 Mean Recovery % B to A (Caco-2 cells; Caco-2) [%] | C.albicans R (MIC90) (C. albicans) [µM] | Mtb H37Rv R + CLAV (MIC90) (Mtb H37Rv [9]) [µM] | Mtb H37Rv R (MIC90) (Mtb H37Rv [9]) [µM] | SGF Stability, % remaining, 1h [7] [%] | SGF Stability, % remaining, 24h [7] [%] | S.aureus R + CLAV (MIC90) (S. aureus) [µM] | Mtb H37Rv NR + CLAV (MIC90) (Mtb H37Rv [10]) [µM] | Mtb H37Rv NR (MIC90) (Mtb H37Rv [10]) [µM] | other results |
| --- | --- | --- | --- | --- | --- | --- | --- | --- | --- | --- | --- | --- | --- | --- | --- | --- | --- | --- |
| C[C@@H](O)[C@H]1C(=O)N2C(C(=O)O)=C(S[C@@H]3CN[C@H](C(=O)Nc4cccc(C(=O)O)c4)C3)[C@H](C)[C@H]12 [Ertapenem, reference compound] | Low | – | – | – | – | – | – | – | – | – | – | – | – | – | – | – | – | remaining at 6 h, 10 μM ([1]; fasted simulated intestinal fluid (FaSSIF), pH 6.5, FaSSIF Stability, % remaining, 6h): 86.8%; remaining at 24 h, 10 μM ([1]; fasted simulated intestinal fluid (FaSSIF), pH 6.5, FaSSIF Stability, % remaining, 24h): 85.8%; Papp A→B at 120 min, 3 μM ([2]; Caco-2, pH 7.4): < 0.23 ×10⁻⁶ cm/s; Papp B→A at 120 min, 3 μM ([2]; Caco-2, pH 7.4): < 0.21 ×10⁻⁶ cm/s; recovery at 120 min, 3 μM ([2]; Caco-2, pH 7.4, Caco-2 Mean Recovery % A to B): < 116%; recovery at 120 min, 3 μM ([2]; Caco-2, pH 7.4, Caco-2 Mean Recovery % B to A): < 112%; remaining at 2 h, 2 μM ([3]; monkey, plasma): 115%; remaining at 2 h, 2 μM ([4]; male, CD-1, mouse, plasma, Plasma stability % Remaining, Mouse): 74.2%; remaining at 2 h, 2 μM ([5]; beagle, dog, plasma): 70.7%; remaining at 2 h, 2 μM ([6]; human, plasma, Plasma stability % Remaining): 77.5%; remaining at 1 h, 10 μM [7, 16]: 0%; remaining at 24 h, 10 μM [7, 16]: 0%; remaining at 2 h, 2 μM ([8]; SD, rat, plasma, Plasma stability % Remaining): 69.1% |
| CC=CC(=O)OCC1=C(C(=O)O)N2C(=O)[C@@H](NC(=O)C(=NO)c3cccs3)[C@H]2SC1 [TBBL-0000058] | Low | > 100 | 114.21 | 66.32 | 41.8 | < 0.38 10-6 cm/s | 0.63 10-6 cm/s | < 98.97 | 111.16 | > 100 | 1.1 | 8.7 | 94.94 | 57.36 | 0.5 | 84.6 | 56.8 | Caco-2 Efflux Ratio (Caco-2 cells; Caco-2): > 1.68; Efflux Transporter Substrate (Caco-2 cells; Caco-2): Poor or no; Plasma stability % Remaining, Monkey [3, 17]: 22.0%; Plasma stability % Remaining, Mouse ([4]; 2 μM): 67.6%; Plasma stability % Remaining, Dog [5, 17]: 81.2%; Plasma stability % Remaining, Human ([6]; 2 μM): 35.0%; Plasma stability % Remaining, Rat ([8]; 2 μM): 60.9% |
| CC(=O)OCC1=C(C(=O)O)N2C(=O)[C@@H](NC(=O)CSc3ccncc3)[C@H]2SC1 [TBBL-0000063] | Low | > 100 | 102.47 | 62 | > 100 | < 0.41 10-6 cm/s | < 0.37 10-6 cm/s | < 87.73 | < 102.87 | > 100 | 1.9 | 13.1 | 87.31 | 27.14 | 0.8 | > 100 | > 100 | % bound to plasma, Cynomolgus Monkey (plasma proteins [11]): 0.0%; % bound to plasma, Human (plasma proteins [12]): 38.7%; % bound to plasma, Beagle Dog (plasma proteins [13]): 27.8%; % bound to plasma, SD Rat (plasma proteins [14]): 42.4%; % bound to plasma, CD-1 Mouse (plasma proteins [15]): 14.7% |
